According to PubChem BioAssay AID449750 (Broad Institute, 2010):
The source made the active and inactive calls. The rule behind the calls is not given here.

Experiment: non-covalent RecA intein splicing inhibitors, dose response, biochemical, cell-free, fluorescence, secondary screen (AID 449750)

Row | Compound | AC50
1 | C=CCn1c(N)c(C(=O)Nc2cccc(C)c2)c2nc3ccccc3nc21 | 14.4 µM
2 | CSc1nnc(NC(=O)c2nc(S(=O)(=O)Cc3cccc(C)c3)ncc2Cl)s1 | > 38 µM (inactive)
3 | N[C@@H]1CCCC[C@H]1N.O=C(O)C(=O)O.[Pt] | > 38 µM (inactive)
4 | CC1=NN(c2cccc(Cl)c2)C(=O)C12CC(C)=C(C)CS2 (stereo not drawn) | 21.7 µM
5 | CC(C)(C)NC(=O)C(c1ccc(Cl)cc1)N(Cc1ccco1)C(=O)CCl (stereo not drawn) | 11.6 µM
6 | O=c1c2ccccc2nc2n1CCC2 | 22.9 µM
7 | CC1=NN(c2ccc(Cl)c(C(=O)O)c2)C(=O)C1 | 3.21 µM
8 | Cc1ccc(NC(=O)C2=C(c3ccccc3)S(=O)(=O)CCS2(=O)=O)cc1 | > 38 µM (inactive)
9 | Cc1ccc(C)c(Sc2ccc(NC(=O)CCl)cc2)c1 | 1.27 µM
10 | CCOC(=O)c1c(CC(C)C)csc1NC(=O)CCl | 3.33 µM
11 | COC1(OC)C(/C=C/c2ccc(C)cc2)C(C#N)(C#N)C1(OC)OC (stereo not drawn) | > 38 µM (inactive)
12 | Cc1nn(-c2ccccc2)c2c1C(c1ccncc1)C(C#N)=C(N)O2 (stereo not drawn) | > 38 µM (inactive)
13 | O=C(c1ccco1)c1coc2c1cc(O)c1ccccc12 | 26.2 µM
14 | Cc1[nH]n(C(N)=S)c(=O)c1C(c1ccccc1)C(C#N)C#N (stereo not drawn) | > 38 µM (inactive)
15 | Cn1c(O)c(C2=NN(C(=O)CCl)C(c3ccccc3)C2)c(=O)n(C)c1=O (stereo not drawn) | 26.2 µM
16 | COc1ccc(N(C(=O)c2ccco2)S(=O)(=O)c2cccs2)cc1 | > 38 µM (inactive)
17 | CCCc1[nH]nc2c1C(CCC)C(C#N)=C(N)O2 (stereo not drawn) | > 38 µM (inactive)
18 | O=C(CN1CCN(S(=O)(=O)c2ccc(Cl)cc2)CC1)Nc1ccc2c(c1)OCO2 | > 38 µM (inactive)
19 | CC1=NN(c2ccccc2)C(=O)/C1=C/c1ccc(Cl)cc1 | 4.65 µM
20 | O=C(CNC(=O)c1ccccc1)N/N=C/c1ccc([N+](=O)[O-])o1 | > 38 µM (inactive)
21 | O=[N+]([O-])c1ccc(S(=O)(=O)c2cccc(C(F)(F)F)c2)nc1 | > 38 µM (inactive)
22 | O=C1C(=O)c2ccccc2C(O)=C1CCCCl | 35.6 µM

Row | Compound | AC50
23 | Cc1ccc(Sc2ccc(NC(=O)CCl)cc2)c(C)c1 | 1.18 µM
24 | O=[N+]([O-])c1cc(Br)c(Nc2ccccc2)c([N+](=O)[O-])c1 | 7.02 µM
25 | COc1cc(Br)c(C2C(C#N)=C(N)Oc3n[nH]c(-c4cccnc4)c32)cc1OC (stereo not drawn) | 34.5 µM
26 | N#C/C(=C\c1cc(Cl)c(OCc2ccc(Cl)cc2)c(Cl)c1)C(N)=O | 9.11 µM
27 | [O-]C1=N/[N+](=C/c2ccccc2Cl)CC1 | > 38 µM (inactive)
28 | COCc1[nH]nc2c1C(c1ccc(OC)cc1)C(C#N)=C(N)O2 (stereo not drawn) | 32.2 µM
29 | COc1cc(N=Nc2cccc(S(N)(=O)=O)c2)c2ccccc2c1N | 34.1 µM
30 | Cc1ccc2c(c1)c1nnc(SCC(=O)Nc3ccc(N(C)C)cc3)nc1n2CC(=O)O | > 38 µM (inactive)
31 | N#CC(C#N)C(c1ccsc1)c1c(-c2ccccc2)[nH][nH]c1=O (stereo not drawn) | 37.8 µM
32 | O=C(CCCN1C(=O)/C(=C/c2ccccc2)SC1=S)Nc1ccc(C(=O)O)c(O)c1 | 33.8 µM
33 | CN(C(=O)c1ccc(S(=O)(=O)c2cccc(Cl)c2)c([N+](=O)[O-])c1)C1CCCCC1 | 13.7 µM
34 | CCCCNC(=O)c1c(N)n(Cc2ccc3c(c2)OCO3)c2nc3ccccc3nc12 | 7.9 µM
35 | Cc1ccsc1/C=N/NC(=O)Cc1cc(=O)[nH][nH]1 | 5.95 µM
36 | Cc1ccc(S(=O)(=O)NC(=O)Nc2ccc(N(C)C)cc2)cc1 | 31 µM
37 | COc1ccc(C2NC(c3ccc(OC)cc3OC)C(C)C(=O)C2C)c(OC)c1 (stereo not drawn) | > 38 µM (inactive)
38 | Cc1nc2ccccc2nc1N/N=C/c1ccc(O)cc1O | > 38 µM (inactive)
39 | Cc1ccc(C(=O)n2cnc3ccccc32)cc1C | > 38 µM (inactive)
40 | NC1=NN(c2cccc(C(=O)O)c2)C(=O)C1 | 29.4 µM
41 | CCCc1[nH]nc2c1C(c1ccc(OC)c(CSC3=NCCS3)c1)C(C#N)=C(N)O2 (stereo not drawn) | 18.5 µM
42 | Cn1nc([N+](=O)[O-])c(C(C#N)c2ccccn2)c(Cl)c1=O (stereo not drawn) | > 38 µM (inactive)
43 | COC(=O)c1ccccc1-c1ccc(C(c2c(C)[nH][nH]c2=O)c2c(C)[nH][nH]c2=O)o1 | 3.62 µM
